Measured values reported in patent US10363239B2, “Method for inhibiting growth of cancer cells” (Pain Therapeutics, Inc., priority 2013, dated 2019).

Assays:
Assay type in all cases: cell-based, human
[1] = test system: breast cancer HTB-22 cells; assay: Cell proliferation by cell-cycling markers Ki67 and PCNA (Western blots); settings: 0.1-5 nM; 4 days
Procedure: (§1) The effect of contact with Compound C0105 on cell proliferation was determined by the levels of cell-cycling markers: Ki67 and PCNA using Western blots in HTB-22 and control human mammary epithelial cells (HMECs). Cells treated with vehicle and 0.1-5 nM Compound C0105 for 4 days were collected, washed and solubilized. The resultant cell lysates were size-fractionated on SDS-PAGE and Western blotting to determine the levels of Ki67, PCNA and actin (loading control). The protein bands were quantified using densitometric scanning.
The effect of C0105 on cell proliferation was determined by the levels of cell-cycling markers Ki67 and PCNA using Western blots in HTB-22 and control HMECs. Cells contacted with vehicle and 0.1-5 nM Compound C0105 for 4 days were collected, washed and solubilized. […] The protein bands were quantified using densitometric scanning. […]
To study the effect of Compound C0105 on PI3K activity, the cancer and primary normal cells were cultured to approximately 60-70% confluency, serum deprived for 4 hours, briefly washed with PBS and treated with vehicle or 0.1, 0.5, 1 or 5 nM Compound C0105 for 24 hours with in 0.1% FBS-containing culture medium. […] The cell pellets were sonicated in ice-cold immunoprecipitation buffer and protein concentrations measured by the Bradford method. […]

[2] = test system: glioblastoma (U-87MG) cells; assay: as above; settings: 0.1-5 nM; 4 days
Procedure: as §1, with “glioblastoma (U-87MG) cells.” for “HTB-22 and control human mammary epithelial cells (HMECs).”, “contacted” for “treated”, “scanning. […] N=4. *p<0.01 compared to vehicle (open bars).” for “scanning.”
To study the effect of Compound C0105 on PI3K activity, the cancer and primary normal cells were cultured to approximately 60-70% confluency, serum deprived for 4 hours, briefly washed with PBS and treated with vehicle or 0.1, 0.5, 1 or 5 nM Compound C0105 for 24 hours with in 0.1% FBS-containing culture medium. The cells were then washed with PBS, scraped off and collected by centrifugation. The cell pellets were sonicated in ice-cold immunoprecipitation buffer and protein concentrations measured by the Bradford method. […]
Immunoreactivity was visualized by reaction in ECL Plus chemiluminescent reagent for exactly 5 minutes, followed by immediate exposure of the blot to X-ray film (Z & Z Medical). Bands at the relevant molecular masses of Ki67 and PCNA were quantified by densitometric scan. […]

glioblastoma cells = assay: Glucose deprivation-induced cell death (cell density); settings: 0.1 or 1 nM; up to 4 days
Procedure: (§2) The effect of Compound C0105 on cell death induced by glucose withdrawal was assessed in glioblastoma and melanoma cells. Cells were grown to >90% confluence, washed and incubated in 0.1% fetal bovine serum (FBS) for 16 hours and incubated in glucose-free 0.1% FBS-containing medium without or with 0.1 or 1 nM C0105 for up to 4 days. Cell density was assessed at the indicated time point. Data are expressed as mean±S.E.M. of percentage change in cell density compared to cells grown in glucose- and 0.1% FBS-containing medium. […] N=5-6.
(§3) In a separate series of studies, the effect of Compound C0105 on glucose dependence was assessed by changes in cell density. The cancer and primary normal cells were grown to >90% confluency. The cells were washed with PBS, incubated in 0.1% fetal bovine serum (FBS) for 16 hours and incubated in glucose-free 0.1% FBS-containing medium for up to 4 days in the presence of vehicle or 1 nM Compound C0105.

melanoma cells = assay: as above; settings: 0.1 or 1 nM; up to 4 days
Procedure: as §2, §3

[3] = test system: breast cancer HTB-22 cells; assay: [3H]glucose uptake; settings: 0.1-5 nM; 4 days
Procedure: (§4) FIG. 1A through FIG. 1M illustrate the effects of various FLNA-binding compounds on glucose uptake in glioblastoma, melanoma, breast and pancreatic cancer cell lines, along with appropriate non-cancerous primary cell controls. Cells were grown in the absence or presence of 0.1-5 nM indicated compounds for 4 days. Following brief washes with PBS, cells were serum-deprived for 4 hours and then incubated in oxygenated Kreb's Ringer containing 0.1 μCi [^3H]glucose for 2 hours under constant oxygenation. The reaction was terminated by removal of the incubation medium, and cells were washed and scraped off to determine the amounts of [^3H]glucose in cells by scintillation spectrometry. […] N=5-6. […] . […] . To determine the effect of Compound C0105 on glucose utilization, the cancer and primary normal cells were plated extremely thinly (10%). Once cells attached, Compound C0105 was added at 0.1, 0.5, 1 or 5 nM in the medium twice daily (6 hours apart) for 4 days. The cells were serum-deprived (glucose deprived) for 2 hours. Cells were then rinsed with 1 ml PBS and glucose uptake was assessed by contacting the cells with [^3H]glucose (0.01 uCi/l ml) in Kreb's Ringer for 2 hours. Cells were then rinsed with 1 ml PBS 3 times, scraped off and their glucose content counted by liquid scintillation spectrophotometry.

[4] = test system: pancreatic cancer MiaPaCa2 cells; assay: [3H]glucose uptake; settings: 0.1-5 nM; 4 days
Procedure: as §4

With CN1CCC2(CC1)NCC(=O)N2Cc1ccccc1 [Compound C0105] the “Cell proliferation (Ki67 and PCNA levels)” value [1] was “reduces cell proliferation”, the “Cell proliferation (Ki67 and PCNA levels)” value [2] was “reduces cell proliferation” and the “Cell death during glucose withdrawal” value (glioblastoma cells) was “reduced the amount of cell death”. For the same compound, the “Cell death during glucose withdrawal” value (melanoma cells) was “reduced the amount of cell death”, the Basal glucose uptake [3] was “dose-dependent inhibition of basal glucose uptake” and the Basal glucose uptake [4] was “dose-dependent inhibition of basal glucose uptake”.
